{"source": "patent US11104630B2", "about": "“Synthesis of mono-chlorinated acetophenone” (SIEGFRIED AG, priority 2017, dated 2021)", "test": "Solubility of the starting material in the solvent", "assay_type": "physicochemical", "conditions": "20° C., until clear solution", "description": "Solubility of the Starting Material in the Solvent\nTo 1 g of HAP is added 5 ml of solvent. The mixture is stirred in a water bath at 20° C. The solvent is further slowly added under stirring until a clear solution appears.\nThe amount of used solvent is noted.", "data": [{"smiles": "CC(=O)c1cccc(O)c1", "note": "[HAP, 3-hydroxy-acetophenon]", "values": [{"measurement": "Solvent in ml per g HAP", "setting": "solvent Acetone", "value": 46, "unit": "ml per g HAP"}, {"measurement": "Solvent in ml per g HAP", "setting": "solvent Acetonitrile", "value": 6, "unit": "ml per g HAP"}, {"measurement": "Solvent in ml per g HAP", "setting": "solvent Cyclohexane", "value": ">200", "unit": "ml per g HAP"}, {"measurement": "Solvent in ml per g HAP", "setting": "solvent DCM", "value": 22, "unit": "ml per g HAP"}, {"measurement": "Solvent in ml per g HAP", "setting": "solvent Ethanol", "value": 20, "unit": "ml per g HAP"}, {"measurement": "Solvent in ml per g HAP", "setting": "solvent Ether", "value": 8, "unit": "ml per g HAP"}, {"measurement": "Solvent in ml per g HAP", "setting": "solvent Methanol", "value": 10, "unit": "ml per g HAP"}, {"measurement": "Solvent in ml per g HAP", "setting": "solvent Tetraglyme", "value": 9, "unit": "ml per g HAP"}, {"measurement": "Solvent in ml per g HAP", "setting": "solvent Toluene", "value": 156, "unit": "ml per g HAP"}, {"measurement": "Solvent in ml per g HAP", "setting": "solvent n-Heptane", "value": 20, "unit": "ml per g HAP"}, {"measurement": "Solvent in ml per g HAP", "setting": "solvent n-Hexane", "value": 23, "unit": "ml per g HAP"}]}]}
